The subject of series [1] is HL-60 cell. Also noted: method as in PMID 6572492. The note with it: cited from earlier work.
Series [2] has as its system VDR. The note with it: cited from earlier work; for IC50: literature values, read-out: VDR Affinity IC50.
Series [3] has as its system VDR. The note with it: literature values, cited from earlier work; for EC50: read-out: Transcriptional Activity EC50.
Series [4] concerns VDR. The note with it: antagonist activity for 1; read-out: Antagonistic Activity IC50; cited from earlier work.
Series [5] relates to CYP24A1 expression in HaCaT cells. Also noted: method as in PMID 17325131, PMID 24773565. The note with it: cited from earlier work.
The test system of series [6] is CYP24A1 expression in intestine-derived HCT116 cells. Further details: method as in PMID 17325131. The note with it: cited from earlier work.
Series [7] concerns VDR. Put plainly: VDR affinity, previously reported. The note with it: effect of exocyclic methylene at C-2; values of Table 1. Type of series: binding.
For series [8], the system named is human dedifferentiated fat (DFAT) cells. Put plainly: Osteogenic differentiation assay: ALP activity in human DFAT cells. Format: cell-based. The note with it: osteogenic medium, 100 nM, 7 days, natural hormone 1 = 100%. How it is done: Mature adipocytes from the adipose tissue of mammals such as humans and rodents can be dedifferentiated into pluripotent cells using ceiling culture. Dedifferentiated fat (DFAT) cells have potential applications in both regenerative medicine and injury healing, as well as mesenchymal stem cells, embryonic stem cells, and induced pluripotent stem cells. The osteogenic activity of vitamin D derivatives was assessed based on alkaline phosphatase (ALP) activity.
Samples of human subcutaneous adipose tissue were obtained from patients who underwent surgery in the Department of Pediatric Surgery at Nihon University Itabashi Hospital (Tokyo, Japan). The patients gave their written informed consent, and the Ethics Committee of Nihon University School of Medicine approved this study. We prepared dedifferentiated fat (DFAT) cells using the ceiling culture method, as described previously. Briefly, the adipose tissue (approximately 1 g) was cut into small pieces and digested with a 0.1% type I collagenase solution (Koken Co., Ltd., Tokyo, Japan). […] The cells that adhered to the upper surface of the flasks were cultured for conversion to dedifferentiated fat cells. […] Cells at passages 2–4 were used for differentiation experiments.
Cells were grown to confluency in 24-well plates and incubated for a week in DMEM containing 10% FBS, 100 nM dexamethasone (Merk), 10 mM β-glycerophosphate (Merk), and […] L-ascorbic acid-2-phosphate (Merk), with 100 nM of each compound. The induction medium was replaced on day 4. The alkaline phosphatase (ALP) activity in the cell lysates was determined on day 7 with a lab assay ALP kit (Fujifilm wako). The total protein content was determined with the BCA protein assay kit (Thermo Fisher Scientific). ALP levels were normalized to the total protein content.

On the set-up of series [9]: method as in PMID 26613420. The note with it: versus natural hormone 1; cited from earlier work.

Read-outs that look alike come from different tables or passages of the source.

As for `C=C1/C(=C\C=C2/CCC[C@]3(C)[C@@H]([C@H](C)CCC(F)(F)C(C)(C)O)CC[C@@H]23)C[C@H](O)C[C@H]1O` [24F2-1,25(OH)2D3, 24, 24-difluoro-1α, 25-dihydroxyvitamin D3], the “activity in HL-60 cell differentiation versus natural metabolite (1)” value in series [1] is “four to seven times more activity than natural metabolite (1)”.
On to `C[C@H](/C=C/C[C@H](O)C12CC3CC(CC(C3)C1)C2)[C@H]1CC[C@H]2/C(=C/C=C3C[C@@H](O)C[C@H](O)C3)CCC[C@]12C` [AD47], for which the IC50 in [2] is 5 nM; in [4], 400 nM. Moreover, the “Transcriptional Activity % Efficacy of That of 1” value in [3] is 17%. Further, the EC50 in [3] was 300 nM. The “CYP24A1 expression compared to 1” value in series [5] is given as 50%; in [6], 75%.
On to `C=C1[C@H](O)CC(=C/C=C2\CCC[C@]3(C)[C@@H]([C@H](C)/C=C/C[C@H](O)C45CC6CC(CC(C6)C4)C5)CC[C@@H]23)C[C@H]1O` [ADNY93], for which the “VDR affinity, times that of AD47 (2)” value in series [7] is on record as 50 times. The IC50 in [2] is 0.1 nM. Further, in [3], the “Transcriptional Activity % Efficacy of That of 1” value is on record as 17% and the EC50 was 1 nM. The IC50 in [4] was 1.2 nM.
Consider `C=C1[C@H](O)CC(=C/C=C2\CCC[C@]3(C)[C@@H]([C@H](C)CC#C[C@@H](O)C45CC6CC(CC(C6)C4)C5)CC[C@@H]23)C[C@H]1O` [ADTK1], for which, in series [8], the ALP activity worked out at 45.6%. Further, the IC50 in [2] was 0.5 nM. Further, the “VDR affinity, % of that of 1” value in series [2] (relative to 1,25(OH)2D3 (1)) was 90%. Further, the “Transcriptional Activity % Efficacy of That of 1” value in series [3] was 81%. For the same compound, the “CYP24A1 expression compared to 1” value in series [5] is reported as “less than 50%”.
On to `C=C1[C@H](O)CC(=C/C=C2\CCC[C@]3(C)[C@@H](C#CC#C[C@@H](O)C45CC6CC(CC(C6)C4)C5)CC[C@@H]23)C[C@H]1O` [ADYW2], for which the IC50 in [2] was 5 nM. Besides, in series [3], the “Transcriptional Activity % Efficacy of That of 1” value is 86% and the EC50 is 1.5 nM. The “stability in MG63 cells” value in [9] was “more stable than natural hormone 1”.

By IC50 is commonly meant the concentration needed to halve the response being measured. As usually defined, the EC50 is the concentration that produces a half-maximal response.

(Values after paper PMC10377034, “Syntheses of 25-Adamantyl-25-alkyl-2-methylidene-1α,25-dihydroxyvitamin D3 Derivatives with Structure–Function Studies of Antagonistic and Agonistic Active Vitamin D Analogs” (Biomolecules, 2023).)
